From patent US9238030B2, “Methods for treatment of diseases and disorders related to transducin β-like protein 1 (TBL1) activity, including myeloproliferative neoplasia and chronic myeloid leukemia” (Beta Cat Pharmaceuticals, LLC, priority 2011, dated 2016)

Columns and labels:
β-catenin [1] = assay: Western blot, proteasomal degradation of β-catenin in AML cells (FIG. 6C); type: cell-based
Procedure: As one can see, there is less of β-catenin in the AML cells treated with 100 nM of Compound 1 for 8 hours as compared to non-treated AML cells. However, when 10 nM of Carfilzomib (CZ) (a proteasome inhibitor) were administered to the same AML cells, the amount of β-catenin increased.

β-catenin [2] = assay: β-catenin expression and nuclear localization, staining with anti-β-catenin antibody and DAPI; type: cell-based; settings: CD34+ Primary FLT3-ITD AML cells, 100 nM, 16 hours
Text: Briefly, CD34+ Primary AML cells, CD34+ Primary FLT3-ITD AML cells and CD34+ Normal cells were stained with anti-β-catenin antibody and DAPI nucleic acid stain. The photographs of these stains were also merged. The photographs of the stained cells are contained in FIG. 5A. As these photographs show, there is a lot of β-catenin expressed in both types of AML cells, and β-catenin is concentrated in nuclei of these cells.
As one can see, compared to control cells (i.e., not treated with Compound 1), this treatment leads to depletion of β-catenin expression and nuclear localization in AML cells.

β-catenin [3] = assay: Western blot of primary AML cells (FIG. 6A); type: cell-based; settings: 100 nM, 8 hours
[4] = tested on: CD34+ Primary FLT3-WT AML cells; assay: % of non-viable cells, in vitro apoptosis; type: cell-based; settings: various amounts
[5] = tested on: CD34+ Primary FLT3-ITD AML cells; assay: % of non-viable cells, in vitro apoptosis; type: cell-based; settings: various amounts
[6] = tested on: primary FLT3-ITD AML xenograft; assay: Survival of NSG mice with primary FLT3-ITD AML xenograft; type: in vivo; settings: 10 mg/kg, three weeks, twice per week intravenous infusion
Text: Very similar results were obtained in NSG mice with primary FLT3-ITD AML xenograft.

[7] = tested on: CD34+ CD38-Lin-Primary AML cells; assay: % of non-viable cells, in vitro apoptosis; type: cell-based; settings: various amounts
[8] = tested on: β-catenin, c-MYC, Cyclin D1 and p21; assay: Levels of β-catenin, c-MYC, Cyclin D1 and p21 in AML cells (FIG. 7C); type: cell-based; settings: 100 nM
Procedure: FIG. 7C contains the bar chart of the effect of administering 100 nM of Compound 1 to AML cells on levels of β-catenin, c-MYC, Cyclin D1 and p21 (control).

CD34+ MPN cells = assay: Apoptosis of primary MPN cells isolated from patients; type: cell-based
Procedure: Briefly, the CD34+ cells isolated from bone marrow of MPN patients, were seeded in medium containing 10% FBS and penicillin/streptomycin. After 24 hours, the cells were treated with Compound 1 for 48 hours or Compound 1 in combination with TG101209. At the end of treatment, cells were washed with 1×PBS and stained with annexin V and TOPRO3 iodide. The percentages of apoptotic cells were determined by flow cytometry. Combination index (CI) was determined using the method of Chou-Talalay (Adv. Enzyme Regul. 22, 27-55).

HEL 92.1.7 cells [9] = assay: Mouse model of human MPN, survival; type: in vivo, NOD-SCID mice; settings: 15 or 20 mg/Kg b.i.w for three weeks via the tail vein; p<001
Procedure: Briefly, NOD-SCID mice were sub-lethally irradiated and HEL 92.1.7 cells were infused into the tail vein and MPN established. Mice were treated with 15 or 20 mg/Kg of Compound 1 administered b.i.w for three weeks via the tail vein. Animals were followed for survival after dosing stopped.

LAMA-84 cells = assay: Apoptosis of CML cells, annexin V / TOPRO3 flow cytometry; type: cell-based, human
Procedure: (§1) Briefly, cell lines K562 (human immortalized myelogenous leukemia line) and LAMA-84 (a human leucocytic cell line) were seeded in medium containing 10% FBS and penicillin/streptomycin. After 24 hours, the cells were treated with Compound 1 for 48 hours. At the end of the treatment, the cells were washed with 1×PBS and stained with annexin V and TOPRO3 iodide. The percentages of apoptotic cells were determined by flow cytometry.
(§2) Briefly, the cell lines K562 and LAMA-84, were seeded in medium containing 10% FBS and penicillin/streptomycin. After 24 hours, the cells were treated with either: 1) Compound 1 alone; or 2) in combination with panobinostat and nilotinib for 48 hours. At the end of treatment, cells were washed with 1×PBS and stained with annexin V and TOPRO3 iodide. The percentages of apoptotic cells were determined by flow cytometry.

K562 cells = assay: as above; type: cell-based, human
Procedure: as §1, §2

OCI-AML3 xenograft cells = assay: Survival of NSG mice with established AML by OCI-AML3 xenograft; type: in vivo; settings: three weeks, twice per week tail vein infusion
β-catenin [10] = assay: Western blot of AML cells (FIG. 5C); type: cell-based; settings: 100 nM
[11] = tested on: TCF reporter plasmid (TOP-FLASH); assay: TOP-FLASH and FOP-FLASH luciferase activity in AML cells; type: cell-based; settings: 20 nM, 50 nM, and 100 nM
Text: FIG. 7A depicts a bar chart of TOP-FLASH and FOP-FLASH luciferase activity versus treatment of AML cells with different amounts of Compound 1.
TOP-FLASH is a Transfection grade T-cell factor (TCF) reporter plasmid containing two sets (with the second set in the reverse orientation) of three copies of the TCF binding site (wild type) upstream of the Thymidine Kinase (TK) minimal promoter and Luciferase open reading frame.
FOP-FLASH is a reporter plasmid containing mutated TCF binding sites is a negative control.
There was no reduction in FOP-FLASH (negative control).

[12] = tested on: β-catenin at target gene promoters; assay: chIP (Chromatin immunoprecipitation) analysis in AML cells; type: cell-based; settings: 200 nM, 8 hours
Text: FIG. 7B contains the bar chart of the results of chIP (Chromatin immunoprecipitation) analysis of the effect of treating AML cells with Compound 1.

UKE1 cells = assay: Apoptosis of MPN cells, annexin V / TOPRO3 flow cytometry; type: cell-based
Procedure: as §2, with “HEL 92.1.7 (FIGS. 1A” for “K562”, “1C) and UKE1 (FIGS. 1B and 1D)” for “LAMA-84,”, “1;” for “1 alone;”, “2) Compound 1” for “2)”, “TG101209” for “panobinostat and nilotinib”

HEL 92.1.7 cells [13] = assay: as above; type: cell-based
Procedure: as §2, with “HEL 92.1.7 (FIGS. 1A” for “K562”, “1C) and UKE1 (FIGS. 1B and 1D)” for “LAMA-84,”, “1;” for “1 alone;”, “2) Compound 1” for “2)”, “TG101209” for “panobinostat and nilotinib”

[14] = molecular target: T1, binding of β-catenin to TBL1 (Homo sapiens, UniProt O60907); assay: Staining of AML cells with anti-β-catenin antibody, anti-TBL1 antibody and DAPI (FIG. 6B); type: cell-based; settings: 100 nM, 16 hours
T1 construct: endogenous in cells; host or cells: AML cells
T1 sequence (O60907 1-577): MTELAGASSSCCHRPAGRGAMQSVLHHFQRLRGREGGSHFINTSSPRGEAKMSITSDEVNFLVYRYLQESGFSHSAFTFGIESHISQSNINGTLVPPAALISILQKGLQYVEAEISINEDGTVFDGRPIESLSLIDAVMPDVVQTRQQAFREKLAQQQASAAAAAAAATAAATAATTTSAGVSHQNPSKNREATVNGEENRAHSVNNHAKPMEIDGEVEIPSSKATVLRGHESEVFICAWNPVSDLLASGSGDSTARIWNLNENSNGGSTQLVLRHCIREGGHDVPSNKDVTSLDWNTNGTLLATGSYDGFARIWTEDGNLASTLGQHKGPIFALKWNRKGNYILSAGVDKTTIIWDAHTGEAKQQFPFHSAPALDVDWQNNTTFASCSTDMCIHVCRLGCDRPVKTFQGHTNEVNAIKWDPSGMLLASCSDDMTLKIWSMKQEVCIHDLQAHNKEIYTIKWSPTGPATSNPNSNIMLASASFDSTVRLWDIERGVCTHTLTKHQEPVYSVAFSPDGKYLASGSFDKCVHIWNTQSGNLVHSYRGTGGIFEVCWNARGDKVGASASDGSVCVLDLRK
Procedure: FIG. 6B is a series of photographs of stained AML cells with and without prior administration of Compound 1. The top panel depicts control cells (without prior administration of Compound 1) and the bottom panel depicts AML cells following administration of 100 nM of Compound 1 for 16 hours. The cells were stained with the anti-β-catenin antibody, anti-TBL1 antibody, and DAPI nucleic acid stain. The photographs of TBL1 and anti-beta-catenin stains were also merged. […] Compare especially the top right photograph and the bottom right photograph.

[15] = in combination with Compound 1, 48 hours

CC(C)C[C@H](NC(=O)[C@H](CCc1ccccc1)NC(=O)CN1CCOCC1)C(=O)N[C@@H](Cc1ccccc1)C(=O)N[C@@H](CC(C)C)C(=O)[C@@]1(C)CO1 [Carfilzomib, reference compound]
amount of β-catenin (β-catenin [1]; 10 nM Carfilzomib administered to the same AML cells treated with Compound 1): increased

C[C@@H]1C[C@H](C)CN(S(=O)(=O)c2ccc3c(c2)C(=NO)c2cc(S(=O)(=O)N4C[C@H](C)C[C@H](C)C4)ccc2C3=NO)C1 [Compound 1]
β-catenin expression and nuclear localization (β-catenin [2]): depletion | β-catenin, Western blot (β-catenin [3]): less | in vitro apoptosis (% of non-viable cells) [4]: significantly induced in vitro apoptosis | in vitro apoptosis (% of non-viable cells) [5]: significantly induced in vitro apoptosis | % survival compared to the control mice [6]: dramatic increase | in vitro apoptosis (% of non-viable cells) [7]: significantly induced in vitro apoptosis | expression of Cyclin D1 [8]: lower expression | expression of c-MYC [8]: lower expression | expression of p21 [8]: much higher expression | expression of β-catenin [8]: lower expression | apoptosis of CD34+ MPN cells (CD34+ MPN cells; 100 nM or above, 48 hours): induced apoptosis | survival compared to the control (HEL 92.1.7 cells [9]): significantly improved survival | effect at S or G2/M phases of the cell cycle (LAMA-84 cells; LAMA-84, 48 hours): did not have significant effect | number of apoptotic cells at G0/G1 phase of the cell cycle (LAMA-84 cells; LAMA-84, 48 hours): increased | number of apoptotic cells (LAMA-84 cells; LAMA-84, Compound 1 alone, 48 hours): increased | effect at S or G2/M phases of the cell cycle (K562 cells; K562, 48 hours): did not have significant effect | number of apoptotic cells at G0/G1 phase of the cell cycle (K562 cells; K562, 48 hours): increased | number of apoptotic cells (K562 cells; K562, Compound 1 alone, 48 hours): increased | survival compared to the control mice (OCI-AML3 xenograft cells; 5 mg/kg): improved survival | survival compared to the control mice (OCI-AML3 xenograft cells; 10 mg/kg): improved survival | Survivin level, Western blot (β-catenin [10]): about the same levels | TBL1 level, Western blot (β-catenin [10]): about the same levels | c-MYC level, Western blot (β-catenin [10]): about the same levels | β-actin level, Western blot (β-catenin [10]): about the same levels | β-catenin expression, Western blot (β-catenin [10]): less | FOP-FLASH luciferase activity (negative control) [11]: no reduction | TOP-FLASH luciferase activity (expression of β-catenin as measured by this luciferase assay) [11]: much lower expression | amount of promoter DNA of CCND1, chIP [12]: reduced amount | amount of promoter DNA of c-MYC, chIP [12]: reduced amount | amount of promoter DNA of survivin, chIP [12]: reduced amount | fate of β-catenin (β-catenin [1]; AML cells): proteasomal degradation | β-catenin compared to non-treated AML cells, Western blot (β-catenin [1]; AML cells, 100 nM, 8 hours): less | apoptosis of UKE1 cells (UKE1 cells; Compound 1 alone, 48 hours): induced apoptosis | apoptosis of HEL 92.1.7 cells (HEL 92.1.7 cells [13]; Compound 1 alone, 48 hours): induced apoptosis | binding of β-catenin to TBL1, staining [14]: severely disrupted | levels of β-catenin, staining [14]: depleted

Cc1cnc(Nc2ccc(N3CCN(C)CC3)cc2)nc1Nc1cccc(S(=O)(=O)NC(C)(C)C)c1 [TG101209, N-tert-butyl-3-[[5-methyl-2-[4-(4-methylpiperazin-1-yl)anilino]pyrimidin-4-yl]amino]benzenesulfonamide, reference compound]
effect on apoptosis induced by Compound 1, CD34+ MPN cells (CD34+ MPN cells; in combination with Compound 1): enhanced | effect on apoptosis induced by Compound 1, UKE1 cells (UKE1 cells; [15]): enhanced | effect on apoptosis induced by Compound 1, HEL 92.1.7 cells (HEL 92.1.7 cells [13]; [15]): enhanced

Cc1cn(-c2cc(NC(=O)c3ccc(C)c(Nc4nccc(-c5cccnc5)n4)c3)cc(C(F)(F)F)c2)cn1 [nilotinib, reference compound]
effect on apoptosis induced by Compound 1 (LAMA-84 cells; LAMA-84, in combination with Compound 1, 48 hours): enhanced | effect on apoptosis induced by Compound 1 (K562 cells; K562, in combination with Compound 1, 48 hours): enhanced
